System: human monocytes (THP-1 cell line)
Assay: multiplex functional cell-based HTS assay (5-plex): expression of co-stimulatory molecules and cytokines by THP-1 monocytes
Design: IL-8 / RANTES / TNFα: unit not given here
Details: THP-1 cells incubated overnight with 10^-5M test compound; for IL-8 / RANTES / TNFα: concentration in cell culture supernatant, Luminex, mean of two wells; for CD54 / CD80: flow cytometry, specific staining (MFI minus isotype control MFI)
Description: Test compounds/candidate agents were diluted in 100% DMSO at a concentration of 10^−2M and stored in 96 well “matrix” plates at −80° C. These compound stocks were employed as a pool of mother plates. Compounds to be assayed were diluted 100 times in sterile PBS using a liquid handling robot “Evolution P3” (PerkinElmer) to a concentration of 10^−4M, and stored at −20° C. until they were used for the assay. In total, 20,000 candidate agents were tested.
10^5 THP-1 cells were incubated overnight with 10^−5M of test compound (20 μl of 10^−4M compound stock solution was added to 180 μl of the cells suspension). Incubations were carried out in U bottom 96 well tissue culture plates. Each compound was tested in duplicate. Collection of the cell culture supernatants and cell surface receptor staining were carried out using the “Biomek 2000” liquid handling robot (Becton Coulter).
Expression of cell surface receptors was analyzed by flow cytometry using the following antibodies: PE-conjugated anti-human CD80 and APC conjugated anti-human CD54 (ICAM-1) and matching labeled isotype controls, all from BD Pharmingen. Cells in the first well of each duplicate were stained with isotype controls (IC). In the second well, cells were stained with CD80 and CD54 antibodies. Stained cells were analyzed on a flow cytometer (FACSArray cytometer (BD Pharmingen)). The mean fluorescence intensity (MFI) for IC and CD80/CD54 antibodies stained cells were determined using “FlowJo” software (Tree Star, Inc.). The IC MFIs were subtracted from CD80/CD54 MFIs and results were recorded as specific staining and used for the following data analysis.
The concentrations of IL-8, RANTES and TNFα in cell culture supernatants were determined for each well of the duplicates using the “Fluorokine MultiAnalyte Profiling” kits (R&D Systems). Samples were analyzed on the Luminex 100IS system and data analysis was performed using Luminex 2.3IS software (both from Luminex corporation). The mean value of two wells was recorded and used for the following data analysis.
To identify agents that stimulate the innate immune system, a multiplex functional cell-based assay was used. The assay used human monocytes (THP-1 cell line) as target cells and expression of co-stimulatory molecules (CD54 and CD80) and immune-activating cytokines (IL-8, RANTES and TNFα) as assay readouts. These molecules play major role in the innate immune response and are required for effective activation of the adaptive immune system.

Compound | IL-8 | RANTES | TNFα | CD54 | CD80
CC[C@]1(O)C[C@@H]2CN(CCc3c([nH]c4ccccc34)[C@@](C(=O)OC)(c3cc4c(cc3OC)N(C)[C@H]3[C@@](O)(C(=O)OC)[C@H](OC(C)=O)[C@]5(CC)C=CCN6CC[C@]43[C@@H]65)C2)C1 [Vinblastine] | 6543.63 | 4568.01 | 78.47 | 665.18 | 3.89
CN[C@H]1CCc2cc(OC)c(OC)c(OC)c2-c2ccc(OC)c(=O)cc21 [Demecolcine] | 2533.58 | 740.62 | 95.20 | 600.87 | 4.91
COc1cc2c(c(OC)c1OC)-c1ccc(OC)c(=O)cc1[C@@H](NC(C)=O)CC2 [Colchicine] | 7499.42 | 4383.62 | 66.37 | 554.50 | 3.69
bacterial lipopolisaccharide [LPS] | 13562.99 | 3217.60 | 866.78 | 3662.56 | 64.12
CC[C@]1(O)C[C@H]2CN(CCc3c([nH]c4ccccc34)[C@@](C(=O)OC)(c3cc4c(cc3OC)N(C=O)[C@H]3[C@@](O)(C(=O)OC)[C@H](OC(C)=O)[C@]5(CC)C=CCN6CC[C@]43[C@@H]65)C2)C1 [Vincristine] | 8334.51 | 5232.60 | 88.30 | 814.96 | 3.90

Source: patent US20070059319A1, “Methods of screening for immuno-adjuvants and vaccines comprising anti-microtubule immuno-adjuvants” (Caliper Life Sciences, Inc., priority 2005, published 2007)
